Read-outs that look alike come from different tables or passages of the source. Where a SMILES comes first, the peptide text is derived from it. Where no end group is shown, it is not given here.
Columns and labels:
[1] = human, Caco-2
[2] = test system: Caco-2 cell monolayer; settings: for Papp (apparent permeability coefficient): applied to AP side, flux to BL side of Caco-2 monolayer; for increase in permeability compared to capped hexapeptide Ac-Trp-Ala-Gly-Gly-Asp-Ala-NH2: Caco-2 Papp ratio; for permeation to BL side of the monolayer: AP-to-BL, in the absence or presence of protease inhibitors (bestatin, diprotin, captopril)
[3] = rat, whole blood, pH 7.4
[4] = HBSS, pH 7.4, 37° C.
[5] = incubated in human blood, pH 7.4, 37° C.
[6] = human, whole blood, pH 7.4
[7] = in vitro; settings: rat, blood, pH 7.4

Ac-WAGGDA-NH2 [Ac-Trp-Ala-Gly-Gly-Asp-Ala-NH2, reference compound]
remaining at 3 h [1]: 75.8 ± 4%
Papp (apparent permeability coefficient) [2]: 2.1±0.5×10^-8 cm/sec.

C[C@@H]1NC(=O)[C@H](Cc2c[nH]c3ccccc23)NC(=O)OCOC(=O)[C@H](C)NC(=O)[C@H](CC(=O)O)NC(=O)CNC(=O)CNC1=O [1a] (HELM PEPTIDE1{W.A.G.G.D.A}|CHEM1{[O=C(OCO[*:2])[*:1]]}$PEPTIDE1,CHEM1,1:R1-1:R1|PEPTIDE1,CHEM1,6:R2-1:R2$$$V2.0)
half-life [3]: 1.85 h
half-life of chemical stability (T1/2) [4]: 3.47 h
T1/2 in human blood [5]: 1.65 h
increase in permeability compared to capped hexapeptide Ac-Trp-Ala-Gly-Gly-Asp-Ala-NH2 [2]: 5-6 fold
Papp (apparent permeability coefficient) [2]: 1.17±0.11×10^-7 cm/sec.

WAGGDA [Trp-Ala-Gly-Gly-Asp-Ala, reference compound]
remaining at 2 h [1]: 0.8 ± 0.1%
permeation to BL side of the monolayer [2]: no detectable quantities
permeation to BL side of the monolayer ([2]; listed as native peptide): totally impermeable

Cc1cc(C)c2c(c1)OC(=O)[C@H](C)NC(=O)[C@H](CC(=O)O)NC(=O)CNC(=O)CNC(=O)[C@H](C)NC(=O)[C@H](Cc1c[nH]c3ccccc13)NC(=O)CC2(C)C [1b] (HELM PEPTIDE1{W.A.G.G.D.A}|CHEM1{[Cc1cc(C)c(C(C)(C)CC(=O)[*:1])c(O[*:2])c1]}$PEPTIDE1,CHEM1,1:R1-1:R1|PEPTIDE1,CHEM1,6:R2-1:R2$$$V2.0)
half-life [6]: 2.88 h
half-life of chemical stability (T1/2) [4]: 12.7 h
increase in permeability compared to capped hexapeptide Ac-Trp-Ala-Gly-Gly-Asp-Ala-NH2 [2]: 5-6 fold
Papp (apparent permeability coefficient) [2]: 1.21±0.36×10^-7 cm/sec.
half-life [7]: 2.88 h

Reference: patent publication US5672584A (priority 1995, dated 1997)
